Drawing on the SangsterLogP compilation, this text covers logD for twelve molecules.

The structures appear in SMILES notation.

The nature of this data set: method code SF-AS, from DOI: 10.1016/0014-5793(90)81139-f, PMID: 2387393. The conditions noted are these: pH 2.0.

Take `COC1=CC(=O)C=CC1=O`: the log distribution coefficient (logD) (commonly the decadic logarithm of the distribution of all forms, ionised or not, between an organic phase and buffer at a given pH) stood at 0.27.

Molecule `CC1=CC(=O)C=C(Br)C1=O` showed a pH-dependent lipophilicity (logD) of 1.21.

In turn, `CC1=CC(=O)C=CC1=O` registered a logD of 0.67.

`Cc1cc(O)cc(Br)c1O` came in with a logD of 1.38.

`Cc1cc(O)c(C)c(C)c1O` showed a pH-dependent lipophilicity (logD) of 1.69.

Molecule `COC1=C(OC)C(=O)C(C)=C(C)C1=O` showed a logD of 1.26.

In the case of `COc1cc(O)cc(OC)c1O`, the pH-dependent lipophilicity (logD) was 0.17.

Molecule `COc1c(O)c(C)c(C)c(O)c1OC` yielded a pH-dependent lipophilicity (logD) of 1.6.

In the case of `COC1=CC(=O)C=C(OC)C1=O`, the logD is -0.05.

`COc1c(O)cc(C)c(O)c1OC` showed a logD of 1.02.

As to `COc1c(O)c(OC)c(OC)c(O)c1OC`, the logD came out at 0.39.

`COc1cc(O)ccc1O` had a pH-dependent lipophilicity (logD) of 0.47.
